# Data reported in publication PMC3034307 (Bioorganic & medicinal chemistry letters, 2010).
# Tests used:
# [1] = molecular target: T1, Shp2 PTP (Homo sapiens, UniProt Q06124); assay: Shp2 PTP inhibition assay; type: biochemical; details: for Inhibition of Shp2 PTP activity at the highest concentration tested: 300 µM
# T1 sequence (Q06124 1-593): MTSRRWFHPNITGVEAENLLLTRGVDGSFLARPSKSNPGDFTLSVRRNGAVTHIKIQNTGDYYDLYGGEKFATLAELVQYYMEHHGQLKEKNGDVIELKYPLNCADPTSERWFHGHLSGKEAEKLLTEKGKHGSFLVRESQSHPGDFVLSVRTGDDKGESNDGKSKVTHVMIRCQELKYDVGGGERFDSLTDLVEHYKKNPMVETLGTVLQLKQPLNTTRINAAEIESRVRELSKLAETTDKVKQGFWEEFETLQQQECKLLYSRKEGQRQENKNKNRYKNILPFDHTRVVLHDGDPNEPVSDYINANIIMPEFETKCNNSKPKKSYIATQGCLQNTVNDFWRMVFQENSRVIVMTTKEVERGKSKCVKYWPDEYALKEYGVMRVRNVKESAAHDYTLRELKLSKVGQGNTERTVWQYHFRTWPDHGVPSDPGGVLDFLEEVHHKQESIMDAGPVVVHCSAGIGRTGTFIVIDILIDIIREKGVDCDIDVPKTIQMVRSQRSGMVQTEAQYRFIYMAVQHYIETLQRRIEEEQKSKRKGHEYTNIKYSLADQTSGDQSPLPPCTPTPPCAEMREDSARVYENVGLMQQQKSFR
# [2] = molecular target: T2, Shp2 (Homo sapiens, UniProt Q06124); assay: Surface plasmon resonance; type: binding; details: SPR
# T2 sequence (Q06124 1-593): T1 sequence (Q06124 1-593)
# [3] = molecular target: T1, Shp2 PTP; assay: Enzyme kinetic assay using DiFMUP as the substrate; type: biochemical
smiles,measurement,setting,value
"C[C@]12CC[C@@H]3c4ccc(O)cc4CC[C@H]3[C@@H]1CC[C@@H]2O [Estradiol, estradiol]",Inhibition of Shp2 PTP activity at the highest concentration tested,[1],did not inhibit
"C[C@]12CC[C@@H]3c4ccc(OC(=O)N(CCCl)CCCl)cc4CC[C@H]3[C@@H]1CC[C@@H]2O [Estramustine, estramustine]",Inhibition of Shp2 PTP activity at the highest concentration tested,[1],did not inhibit
"C[C@]12CC[C@@H]3c4ccc(OC(=O)N(CCCl)CCCl)cc4CC[C@H]3[C@@H]1CC[C@@H]2OP(=O)(O)O [Estramustine phosphate, estramustine phosphate]",association rate constant ka,[2],2200 M⁻¹ s⁻¹
same,Ki,[3],22.8 µM
same,Inhibition kinetics (best fit),[3]; DiFMUP substrate,mixed inhibition kinetics
CC1=C(O)C(=O)C=C2C1=CC=C1[C@@]2(C)CC[C@@]2(C)[C@@H]3C[C@@H](C)C(=O)C[C@]3(C)CC[C@]12C [Maitenin],Fold less potent than celastrol in Shp2 inhibition,[1],18 fold
COc1ccc2c(c1)CC[C@@H]1[C@@H]2CC[C@@]2(C)[C@H]1CC[C@@]21CCNP(=O)(N(CCCl)CCCl)O1 (stereo partly shown) [NSC233064],Inhibition of Shp2 PTP activity at the highest concentration tested,[1],did not inhibit
